# Assay results reported in patent US9062028B2, “Bicyclic nitrogen containing heteroaryl TGR5 receptor modulators” (Bristol-Myers Squibb Company, priority 2011, dated 2015).
# Where a name gives a salt, the structure may show the parent alone.
# Biological target: T1, recombinant human TGR5 (Homo sapiens, UniProt Q8TDU6)
# T1 construct: expressed in transfected cells
# T1 sequence (Q8TDU6 1-330): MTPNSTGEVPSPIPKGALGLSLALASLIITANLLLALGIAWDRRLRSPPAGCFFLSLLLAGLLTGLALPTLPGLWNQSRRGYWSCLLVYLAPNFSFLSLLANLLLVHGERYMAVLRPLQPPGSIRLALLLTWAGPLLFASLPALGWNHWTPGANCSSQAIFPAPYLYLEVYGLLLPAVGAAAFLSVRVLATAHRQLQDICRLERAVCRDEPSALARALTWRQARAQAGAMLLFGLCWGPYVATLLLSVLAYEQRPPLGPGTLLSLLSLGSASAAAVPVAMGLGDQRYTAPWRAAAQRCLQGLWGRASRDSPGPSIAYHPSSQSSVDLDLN
# Assay: cAMP assay (cAMP accumulation, HTRF) in CHOK1 cells stably expressing TGR5
# Assay type: cell-based
# Settings: CHOK1 cells stably expressing human TGR5, 30 minutes at RT, 1% DMSO
# In short: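 Agonist-induced cAMP accumulation: stable TGR5-CHOK1 cells treated 30 min at RT with compound (1% DMSO) plus 0.1 mM IBMX. HTRF ratio converted to nM cAMP via standard curve; EC50 from four-parameter logistic fit, midpoint between baseline and maximum.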
row,EC50 [nM],Molecule
1,43,"COC(=O)[C@@H](CCC(=O)O)NC(=O)c1ccc(Cl)c(Cn2cc(-c3cccc4c3[C@H]3C[C@H]3CN4C(=O)OCCOc3cccc(Cl)c3C)cn2)c1 [Example 672, (R)-4-(4-Chloro-3-((4-((1aR,7bS)-3-((2-(3-chloro-2-methylphenoxy)ethoxy)carbonyl)-1a,2,3,7b-tetrahydro-1H-cyclopropa[c]quinolin-7-yl)-1H-pyrazol-1-yl)methyl)benzamido)-5-methoxy-5-oxopentanoic acid]"
2,196,"Cc1cccc(OCCCC(=O)N2CCCc3c(-c4cnn(Cc5cccc(C(=O)N[C@@H](Cc6ccccc6)C(=O)O)c5)c4)cccc32)c1C [Example 848, (S)-2-(3-((4-(1-(4-(2,3-Dimethylphenoxy)butanoyl)-1,2,3,4-tetrahydroquinolin-5-yl)-1H-pyrazol-1-yl)methyl)benzamido)-3-phenylpropanoic acid]"
3,176,"Cc1c(Cl)cccc1OCCCC(=O)N1CCCOc2c(-c3cnn(Cc4cccc(NC(=O)NCC(=O)O)c4)c3)cccc21 [Example 521, 2-(3-(3-((4-(5-(4-(3-Chloro-2-methylphenoxy)butanoyl)-2,3,4,5-tetrahydrobenzo[b] [1,4]oxazepin-9-yl)-1H-pyrazol-1-yl)methyl)phenyl)ureido)acetic acid]"
4,1360,"Cc1cccc(OCCCC(=O)N2CCCc3c(-c4cnn(Cc5cccc(C(=O)N6CCC(C(=O)O)C6)c5)c4)cccc32)c1C (stereo not shown) [Example 859, 1-(3-((4-(1-(4-(2,3-Dimethylphenoxy)butanoyl)-1,2,3,4-tetrahydroquinolin-5-yl)-1H-pyrazol-1-yl)methyl)benzoyl)pyrrolidine-3-carboxylic acid]"
5,173,"Cc1c(Cl)cccc1OCCCC(=O)N1CCCOc2c(-c3cnn(Cc4c(F)cc(C(=O)NCC(=O)O)cc4Cl)c3)cccc21 [Example 786, 2-(3-Chloro-4-((4-(5-(4-(3-chloro-2-methylphenoxy)butanoyl)-2,3,4,5-tetrahydrobenzo[b][1,4]oxazepin-9-yl)-1H-pyrazol-1-yl)methyl)-5-fluorobenzamido)acetic acid]"
6,195,"Cc1c(Cl)cccc1OCCOC(=O)N1CCSc2c(-c3cnn(Cc4cccc(C(=O)NCCC(=O)O)c4Cl)c3)cccc21 [Example 628, 3-(2-Chloro-3-((4-(4-((2-(3-chloro-2-methylphenoxy)ethoxy)carbonyl)-3,4-dihydro-2H-benzo[b][1,4]thiazin-8-yl)-1H-pyrazol-1-yl)methyl)benzamido)propanoic acid]"
7,43,"Cc1c(Cl)cccc1OCCCC(=O)N1CCSc2c(-c3cnn(Cc4c(F)cc(C(=O)NCCC[C@H](N)C(=O)O)cc4Cl)c3)cccc21 [Example 583, (S)-2-Amino-5-(3-chloro-4-((4-(4-(4-(3-chloro-2-methylphenoxy)butanoyl)-3,4-dihydro-2H-benzo[b][1,4]thiazin-8-yl)-1H-pyrazol-1-yl)methyl)-5-fluorobenzamido) pentanoic acid]"
8,37,"Cc1c(Cl)cccc1OCCCC(=O)N1C[C@@H]2C[C@@H]2c2c(-c3cnn(Cc4cccc(NC(=O)NCC(=O)O)c4)c3)cccc21 [Example 916, 2-(3-(3-((4-((1aR,7bS)-3-(4-(3-Chloro-2-methylphenoxy)butanoyl)-1a,2,3,7b-tetrahydro-1H-cyclopropa[c]quinolin-7-yl)-1H-pyrazol-1-yl)methyl)phenyl)ureido) acetic acid]"

# Further lines, the molecule ahead of its results:
row,Molecule,EC50 [nM]
1,"Cc1cccc(OCCCC(=O)N2C[C@@H]3C[C@@H]3c3c(-c4cnn(Cc5cccc(C(=O)NCCS(=O)(=O)O)c5)c4)cccc32)c1C (single isomer, unassigned) [Example 240]",49
2,"Cc1cccc(OCCCC(=O)N2CCCc3c(-c4cccc(C(=O)NCC(=O)O)c4)cccc32)c1C [Example 138, 2-(3-(1-(4-(2,3-Dimethylphenoxy)butanoyl)-1,2,3,4-tetrahydroquinolin-5-yl)benzamido)acetic acid]",3460
3,"Cc1cccc(OCCOC(=O)N2CCOc3c(-c4cnn(Cc5cccc(C(=O)O)c5)c4)cccc32)c1C [Example 29, 3-((4-(4-((2-(2,3-Dimethylphenoxy)ethoxy)carbonyl)-3,4-dihydro-2H-benzo[b][1,4]oxazin-8-yl)-1H-pyrazol-1-yl)methyl)benzoic acid]",596
4,"Cc1cccc(OCCCC(=O)N2CCCc3c(-c4cnn(CC(=O)C(C)(C)CC(=O)O)c4)cccc32)c1C [Example 493, 5-(4-(1-(4-(2,3-Dimethylphenoxy)butanoyl)-1,2,3,4-tetrahydroquinolin-5-yl)-1H-pyrazol-1-yl)-3,3-dimethyl-4-oxopentanoic acid]",4150
5,"Cc1cccc(OCCCC(=O)N2CCCc3c(-c4cccc(COC(=O)NCC[C@H](O)C(=O)O)c4)cccc32)c1C [Example 273, (S)-4-((3-(1-(4-(2,3-Dimethylphenoxy)butanoyl)-1,2,3,4-tetrahydroquinolin-5-yl)benzyloxy)carbonylamino)-2-hydroxybutanoic acid]",646
6,"Cc1cccc(N(CCCC(=O)N2CCCc3c(-c4cnn(Cc5cccc(C(=O)O)c5)c4)cccc32)C(=O)OC(C)(C)C)c1C [Example 933, 3-((4-(1-(4-(tert-Butoxycarbonyl(2,3-dimethylphenyl)amino)butanoyl)-1,2,3,4-tetrahydroquinolin-5-yl)-1H-pyrazol-1-yl)methyl)benzoic acid]",1610
7,"Cc1cccc(OCCCC(=O)N2CCCc3c(-c4cccc(COC(=O)NCC(C)(C)C(=O)O)c4)cccc32)c1C [Example 257, 3-((3-(1-(4-(2,3-Dimethylphenoxy)butanoyl)-1,2,3,4-tetrahydroquinolin-5-yl)benzyloxy)carbonylamino)-2,2-dimethylpropanoic acid]",682
8,"Cc1cccc(OCCCC(=O)N2CCCc3c(-c4cnn(Cc5ccc[n+](CC(=O)O)c5)c4)cccc32)c1C [Example 466, 1-(Carboxymethyl)-3-((4-(1-(4-(2,3-dimethylphenoxy)butanoyl)-1,2,3,4-tetrahydroquinolin-5-yl)-1H-pyrazol-1-yl)methyl)pyridinium, TFA salt]",3930
9,"Cc1cccc(OCCCC(=O)N2CCCc3c(-c4cnn(Cc5c(F)cc(C(=O)NCS(=O)(=O)O)cc5Cl)c4)cccc32)c1C [Example 179, (3-Chloro-4-((4-(1-(4-(2,3-dimethylphenoxy)butanoyl)-1,2,3,4-tetrahydroquinolin-5-yl)-1H-pyrazol-1-yl)methyl)-5-fluorobenzamido)methanesulfonic acid]",45
10,"Cc1cccc(OCCCC(=O)N2CCCc3c(-c4cccc(C(=O)NCCS(=O)(=O)O)c4)cccc32)c1C [Example 148, 2-(3-(1-(4-(2,3-Dimethylphenoxy)butanoyl)-1,2,3,4-tetrahydroquinolin-5-yl)benzamido) ethanesulfonic acid]",3310
11,"Cc1cccc(OCCCC(=O)N2CCCc3c(-c4cccc(COC(=O)N[C@@H](Cc5cncn5C)C(=O)O)c4)cccc32)c1C [Example 316, (S)-2-((3-(1-(4-(2,3-Dimethylphenoxy)butanoyl)-1,2,3,4-tetrahydroquinolin-5-yl)benzyloxy)carbonylamino)-3-(1-methyl-1H-imidazol-5-yl) propanoic acid]",638
12,"Cc1cccc(OCCCC(=O)N2CCCc3c(-c4cccc(COC(=O)N[C@@H](Cc5ccc(OP(=O)(O)O)cc5)C(=O)O)c4)cccc32)c1C [Example 324, (S)-2-((3-(1-(4-(2,3-Dimethylphenoxy)butanoyl)-1,2,3,4-tetrahydroquinolin-5-yl)benzyloxy)carbonylamino)-3-(4-(phosphonooxy)phenyl)propanoic acid]",3390
13,"Cc1cccc(OCCCC(=O)N2CCCc3c(-c4cnn(Cc5cccc(N(C)C(=O)N(C)CC[N+](C)(C)C)c5)c4)cccc32)c1C [Example 472, 2-(3-(3-((4-(1-(4-(2,3-Dimethylphenoxy)butanoyl)-1,2,3,4-tetrahydroquinolin-5-yl)-1H-pyrazol-1-yl)methyl)phenyl)-1,3-dimethylureido)-N,N,N-trimethylethanaminium, TFA salt]",1840
14,"Cc1cccc(OCCCC(=O)N2CCCc3c(-c4cccc(COC(=O)NCC(F)(F)C(=O)O)c4)cccc32)c1C [Example 297, 3-((3-(1-(4-(2,3-Dimethylphenoxy)butanoyl)-1,2,3,4-tetrahydroquinolin-5-yl)benzyloxy)carbonylamino)-2,2-difluoropropanoic acid]",687
15,"(R)-5-tert-Butyl 1-methyl 2-(4- chloro-3-((4-((1aR,7bS)-3-((2- (3-chloro-2-methylphenoxy) ethoxy)carbonyl)-1a,2,3,7b- tetrahydro-1H-cyclopropa[c] quinolin-7-yl)-1H-pyrazol-1- yl)methyl)benzamido) pentanedioate [Example 669]",1340
16,"Cc1c(Cl)cccc1OCCOC(=O)N1C[C@@H]2C[C@@H]2c2c(-c3cnn(Cc4cc(OCCOCC(=O)O)ccc4Cl)c3)cccc21 [Example 448, 2-(2-(4-Chloro-3-((4-((1aR,7bS)-3-((2-(3-chloro-2-methylphenoxy)ethoxy)carbonyl)-1a,2,3,7b-tetrahydro-1H-cyclopropa[c]quinolin-7-yl)-1H-pyrazol-1-yl)methyl)phenoxy)ethoxy)acetic acid]",183
17,"[2H]C([2H])(COC(=O)N1CCCOc2c(-c3cnn(Cc4c(F)cc(C(=O)O)cc4Cl)c3)cccc21)Oc1cccc(Cl)c1C [Example 418, 3-Chloro-4-((4-(5-((2-(3-chloro-2-methylphenoxy)-2,2-dideuteroethoxy)carbonyl)-2,3,4,5-tetrahydrobenzo[b][1,4]oxazepin-9-yl)-1H-pyrazol-1-yl)methyl)-5-fluorobenzoic acid]",185
